The results in this text go back to PubChem BioAssay AID179 (DTP/NCI, 2004).

In this test the test system is CEM cells HIV-1 protection, formazan growth assay. The test is described as follows: NCI AIDS Antiviral Assay. The settings on record: for IC50: measured here: growth of uninfected CEM cells. Put shortly:
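Five concentrations of each compound were applied to infected and uninfected human CEM cells. Protection from HIV-1 was judged from growth measured with a soluble formazan assay.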

Structures are written as SMILES. Calls of active or inactive are those of the source.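 Rule for the calls: active = compounds giving half or more protection of infected cells from virus-caused growth loss, again on retest; inactive = the rest.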

One may read the EC50 as the concentration giving half of the maximal effect. As a reminder, the IC50 is the midpoint of a concentration-inhibition curve. Low readings indicate inhibition by little substance, high ones a need for much substance. For the compound `N#Cc1ccccc1NC(=O)C(O)C(O)C(O)C(O)C=O` (centres undefined), the EC50 is > 200 µM and the 50% inhibitory concentration (IC50) is > 200 µM.

As to `O=C1Cc2c([nH]c3ccc(Br)cc23)-c2ccccc2N1`, the EC50 was > 200 µM and the IC50 came out at 2.95 µM.

Take `N#CC(Cc1ccccc1)C(=O)NN` (centres undefined): the EC50 is > 200 µM and the half-inhibitory concentration (IC50) was > 200 µM.

`CCCCCCCCCCCCCC(=O)OCC1OC(n2cc(F)c(=O)[nH]c2=O)C(NC(=O)OCc2ccccc2)C(OC(=O)CCCCCCCCCCCCC)C1O` (centres undefined): the EC50 is > 11.7 µM and the half-inhibitory concentration (IC50) was > 11.7 µM.

`CCCCC(c1nc2c(c3c1CCCC3)CCCC2)C(O)(C(F)(F)F)C(F)(F)F` (centres undefined): the EC50 is > 200 µM and the 50% inhibitory concentration (IC50) came to 38.9 µM.

In the case of `COC(=O)c1ccc2cc(O)c(O)cc2c1`, the EC50 was > 200 µM and the IC50 came to 22.4 µM.

For `COc1cc(C(c2c(O)c3ccccc3oc2=O)c2c(O)c3ccccc3oc2=O)cc(OC)c1O`, the EC50 was > 200 µM and the 50% inhibitory concentration (IC50) was determined as 15.5 µM.

Take `C=CC(C)(C)n1cc(C2=C(O)C(=O)C(c3cn(C(C)(C)C=C)c4ccccc34)=C(O)C2=O)c2ccccc21`: the EC50 is > 22.4 µM and the concentration for half-maximal inhibition (IC50) was 12.3 µM.

Turning to `COc1cc(OC)cc(C2(C(=O)O)CCN(C)CC2)c1`, the EC50 was > 891 µM and the IC50 was determined as 97.7 µM.

In the case of `CC/C(=C(\C#N)c1ccc(OC)cc1)c1ccc(N(C)C)cc1`, the EC50 is > 20 µM and the IC50 is 0.871 µM.

With `C[C@H](c1ccccc1)N1C(=O)[C@@H](OCc2ccccc2)[C@H]1[C@H](COC(=O)COCc1ccccc1)OCc1ccccc1`, the EC50 is > 200 µM and the IC50 is > 200 µM.

For the compound `Cc1cccc(C(C)C)c1N1C(=O)C(=O)C(c2nc3ccccc3o2)C(=O)C1=O`, the EC50 is > 13.5 µM and the 50% inhibitory concentration (IC50) is > 13.5 µM.

As for `Cc1nc2c(Cl)cc(Cl)cc2c(Cl)c1CCCl`, the EC50 is > 200 µM and the IC50 is > 200 µM.

As to `c1ccc(-c2nc3ccccc3nc2-c2ccccn2)nc1`, the EC50 is > 200 µM and the IC50 is > 200 µM.

Regarding `N/C(=N\NS(=O)(=O)c1ccccc1)C(F)(F)F`, the EC50 is > 200 µM and the half-maximal inhibitory concentration (IC50) is 107 µM.

In the case of `CN1C2CCC1CC(OC(=O)C(CO)c1ccccc1)C2` (centres undefined), the EC50 is > 200 µM and the IC50 is > 200 µM.

As to `CC(=O)O[C@]12CCCCC1C1(O)C(O)CCCCC12` (some centres undefined), the EC50 was > 200 µM and the IC50 was > 200 µM.

For the compound `O=C1C=CC(=O)c2c1ccc1c3ccccc3n(Cc3ccccc3)c21`, the EC50 was > 200 µM and the IC50 is 3.24 µM.

Take `COCCCCCCCCCCCC(=O)OCC1OC(n2cc(C)c(=O)[nH]c2=O)CC1N=[N+]=[N-]` (centres undefined): the 50% effective concentration (EC50) was 0.0269 µM and the 50% inhibitory concentration (IC50) was found to be 34.7 µM.

Regarding `COC1OC2COc3ccccc3OC2C2N=C(N)SC12` (centres undefined), the EC50 was 295 µM and the half-maximal inhibitory concentration (IC50) came out at 363 µM.

As to `C/C(CC(=O)NCCc1ccccc1)=N\NS(=O)(=O)c1ccc(C)cc1`, the EC50 was > 347 µM and the IC50 was 339 µM.

Regarding `COc1ccc(CCN2C(=O)c3cccc4c(Sc5ccccc5[N+](=O)[O-])ccc(c34)C2=O)cc1OC`, the EC50 is > 200 µM and the concentration for half-maximal inhibition (IC50) was > 200 µM.

As for `Cc1cccc2c1Oc1cc(Cl)ccc1C2NC(=O)CCN1CCOCC1` (centres undefined), the EC50 is > 200 µM and the IC50 was > 200 µM.

In the case of `Cc1c(C)c2c(c(N)c1C#N)C(=O)N(N)C2=O`, the EC50 is > 200 µM and the IC50 is 132 µM.

Regarding `COc1ccc2c(c1)-c1oc3ccccc3c(=O)c1CO2`, the EC50 is > 200 µM and the half-inhibitory concentration (IC50) is 32.4 µM.

Take `Oc1ccc2ccc3c(c2c1)CN(Cc1ccccc1)CO3`: the EC50 was > 24.5 µM and the IC50 is > 24.5 µM.

In the case of `C[Si](C)(C)C#C[I+]c1ccccc1`, the outcome was inactive.

On to `CN(C)c1ccc(/C=C(\NC(=O)c2ccccc2)C2NC(Cc3c[nH]c4ccccc34)C(=O)O2)cc1` (centres undefined), for which the EC50 was > 100 µM and the IC50 amounted to 8.71 µM.

As to `COc1cc2c3c(c1OC)-c1cc4c(cc1CC3(C#N)N(C(=O)c1ccccc1)CC2)OCO4` (centres undefined), the outcome was inactive.

With `CC(=O)OC1C=CC(OC(C)=O)C2C1[C@H]1C3C=CC=CC3[C@@H]2S1=O` (some centres undefined), the EC50 is > 200 µM and the IC50 was found to be 112 µM.

`CCCCCCCCCCCC(=O)NCc1ccc(OC(=O)CCCCCCCCCCC)c(OC)c1`: the EC50 was > 200 µM and the IC50 was 40.7 µM.

For the compound `CNc1cc(OCc2ccccc2)c(OC)cc1C(=O)N1CCC[C@H]1CO`, the EC50 is > 200 µM and the concentration for half-maximal inhibition (IC50) came to 42.7 µM.

For the compound `CC1=C(C(=O)NCCCN(CCO)CCO)CC(C(=O)NCCCN(CCO)CCO)=C(C)N1`, the EC50 is > 200 µM and the IC50 came out at 112 µM.

As to `CN/C=C(/c1ccc(OC)cc1)C(O)c1ccc(OC)c(OC)c1` (centres undefined), the EC50 was > 759 µM and the half-inhibitory concentration (IC50) amounted to 282 µM.

With `CC1CCC2(OC1)OC1CC3C4CCC5CC(O)CCC5(C)C4CC(=O)OC3(C)C1C2C` (centres undefined), the result was inactive.

Regarding `O=S(=O)(O)C(C(I)I)S(=O)(=O)O`, the EC50 was > 200 µM and the IC50 was > 200 µM.

`O=C(CS)NCCNC(=O)CS`: the EC50 is > 25.1 µM and the IC50 was > 25.1 µM.

Consider `CC1OC(=O)N2CCC=CC12` (centres undefined), for which the outcome was inactive.

Turning to `CC(=O)NC(CCCCNCc1ccccc1)C(=O)NCc1ccccc1` (centres undefined), the EC50 was > 676 µM and the IC50 was > 676 µM.

For `c1cc(C2O[C@H]3CCCN3[C@@H]2c2ccncc2)ccn1` (some centres undefined), the EC50 is > 933 µM and the concentration for half-maximal inhibition (IC50) amounted to 331 µM.

On to `O=C1C2CCCCC2C(=O)N1n1c(Cc2ccc(Cl)cc2)n[nH]c1=O` (centres undefined), for which the EC50 is > 200 µM and the IC50 was > 200 µM.

For the compound `O=C1/C(=C/c2ccccc2)CCc2ccc([N+](=O)[O-])cc21`, the EC50 was > 200 µM and the concentration for half-maximal inhibition (IC50) is 11.2 µM.

Consider `Cc1ccc2c(c1)C(=O)N(N(C)C)CC(=O)N2`, for which the outcome was inactive.

With `C[N+](C)(C)C=Nc1cccc2c1CCCC2`, the EC50 is > 200 µM.

As to `Cc1ccc(S(=O)(=O)NCCSS(=O)(=O)c2ccc(C)cc2)cc1`, the EC50 is > 25.7 µM and the IC50 is > 25.7 µM.

With `Cc1cc(C)cc(NC(=O)CCC(=O)C2CCC/C2=N\NC(=O)C(=O)NN)c1` (centres undefined), the EC50 is > 67.6 µM and the IC50 was > 67.6 µM.

`N#CC(c1nc2ccccc2nc1Cl)S(=O)(=O)c1ccccc1` (centres undefined): the EC50 is > 105 µM and the IC50 turned out to be 6.76 µM.

Regarding `CCOC(=O)NN(CCOS(=O)(=O)c1ccc(C)cc1)CCOS(=O)(=O)c1ccc(C)cc1`, the EC50 was > 200 µM and the half-inhibitory concentration (IC50) was found to be 120 µM.

For `CC1=CC(=O)c2c(O)cccc2C1=O`, the EC50 was > 2 µM and the concentration for half-maximal inhibition (IC50) amounted to 0.912 µM.

For the compound `CCOC(=O)c1nc(SC)sc1NC(=O)c1ccc(OC)cc1`, the half-maximal effective concentration (EC50) was 162 µM and the IC50 is > 200 µM.

For `CNC(=O)Nc1ccc(Cl)cn1`, the EC50 was > 200 µM and the 50% inhibitory concentration (IC50) was > 200 µM.

In the case of `Cc1ccccc1NC(=O)C(=O)CC(=O)c1sc(-n2nc(-c3ccccc3)cc2-c2ccccc2)nc1C`, the EC50 is > 479 µM and the half-inhibitory concentration (IC50) was > 479 µM.

Take `OC1c2ccccc2C(O)C2OC12` (centres undefined): the EC50 was > 200 µM and the 50% inhibitory concentration (IC50) is 115 µM.

For the compound `CC(=O)OCC1OC(n2c(-c3cccs3)c3c(c(C#N)c2=S)-c2ccccc2CC3)C(OC(C)=O)C(OC(C)=O)C1OC(C)=O` (centres undefined), the result was inactive.

`CC(=O)OC1CCC2C3CCc4c(C)ccc(OS(=O)(=O)c5ccccc5)c4C3CCC12C` (centres undefined): the EC50 is > 200 µM and the half-maximal inhibitory concentration (IC50) was > 200 µM.

Turning to `NS(=O)(=O)c1c(O)c2ccccc2oc1=O`, the outcome was inactive.

`CCCC[P+](c1ccccc1)(c1ccccc1)c1ccccc1`: the EC50 was > 200 µM and the IC50 worked out at 2.57 µM.

As for `COc1ccc(-c2c3c([nH]c(=S)c2C#N)CC(C)(C)CC3=O)cc1`, the result was inactive.

Take `CC(C)(C)OC(=O)N(CCNS(=O)(=O)c1cccc2cnccc12)CCC(=O)ON1C(=O)CCC1=O`: the EC50 is > 200 µM and the IC50 was > 200 µM.

With `Cc1cn(C2CCC(COP(=O)(OCC(=O)C(C)(C)C)OCC(=O)C(C)(C)C)O2)c(=O)[nH]c1=O` (centres undefined), the EC50 was 30.9 µM and the 50% inhibitory concentration (IC50) was > 200 µM.

Turning to `O=c1c2c(no[n+]2[O-])c2ccccc2n1-c1ccccc1`, the EC50 was > 200 µM and the IC50 is 1.95 µM.

Consider `COC(=O)[C@]12CCC(C)[C@H](C)[C@H]1C1=CCC3[C@@]4(C)CC[C@H](OC(C)=O)C(C)(C)C4CC[C@@]3(C)C1(C)C(O)C2` (some centres undefined), for which the outcome was inactive.

Consider `c1cnn(C23C4C5C6C4C2C6C53)c1` (centres undefined), for which the EC50 was > 200 µM and the IC50 was > 200 µM.

For `COc1cc2c(nn1)CCCC2`, the outcome was inactive.

With `NC(N)=N/N=C/c1c(Cl)nc2n1CCS2`, the EC50 was > 200 µM and the IC50 was found to be 102 µM.

Take `CCOC(=O)c1ccc(CS(=O)(=O)c2ccccc2C(=O)OCC)cc1`: the EC50 was > 95.5 µM and the IC50 is > 95.5 µM.

For the compound `CCn1nc(C)c2c1C(=O)NCC(=O)N2`, the EC50 is > 200 µM and the concentration for half-maximal inhibition (IC50) is > 200 µM.

Consider `Cn1c2ccccc2c2ccc3c(c21)C(=O)C=CC3=O`, for which the EC50 is > 100 µM and the IC50 was 1.35 µM.

For the compound `Cc1cc(Cl)c(=O)n(-c2ccccc2)n1`, the EC50 is > 162 µM and the half-maximal inhibitory concentration (IC50) is > 162 µM.

On to `COc1ccc([N+](=O)[O-])c2c(NCCCN(C)C)ccnc12`, for which the EC50 was > 200 µM and the IC50 worked out at 4.47 µM.

`O=c1cc(-c2cccs2)ss1`: the EC50 was 77.6 µM and the IC50 is 110 µM.

Consider `O=C(Nc1ccc([N+](=O)[O-])cc1)OCC(COc1ccccc1)OC(=O)Nc1ccc([N+](=O)[O-])cc1` (centres undefined), for which the EC50 is > 200 µM and the concentration for half-maximal inhibition (IC50) worked out at 7.76 µM.

Take `CN(C)C(=S)Nc1ccc(Cl)cc1`: the EC50 was > 200 µM and the IC50 is 52.5 µM.

On to `Cc1nnc(N=Nc2c(O)[nH]c3c(Cl)cc(Cl)cc23)n1N`, for which the EC50 is > 16.6 µM and the IC50 was > 16.6 µM.

On to `CN1CCN(C(=O)CCNC(=O)Cc2ccc(C(=O)c3ccccc3)cc2)CC1`, for which the EC50 was > 200 µM and the half-inhibitory concentration (IC50) came to 64.6 µM.
